Measured values as given in patent publication US20040171681A1, “Medicines and medicinal kits” (priority 2001, published 2004).

System: ocular hypertension models
Test: Test Example 1: ocular tension in rabbit ocular hypertension models (hypertonic saline) after eye drop solutions
Format: in vivo, Domesticated rabbits
Conditions: rabbits given 100 μl 5 w/v % hypertonic saline, 50 μl eye drop solution, mean ± standard error
Description: Domesticated rabbits intravenously administered with 100 μl of a 5 w/v % hypertonic saline solution were used as ocular hypertension models. After intravenously administering the hypertonic saline solution, 50 μl of each of the eye drop solutions were administered and the ocular tension was measured 60 and 120 minutes thereafter.

SMILES: CC(C)OC(=O)CCC/C=C\C[C@@H]1[C@@H](CC[C@@H](O)CCc2ccccc2)[C@H](O)C[C@@H]1O [Latanoprost, latanoprost]
- Ocular tension change (mmHg) 60 minutes (60 minutes after): 22.7 ± 1.2 mmHg
- Ocular tension change (mmHg) 120 minutes (120 minutes after): 9.8 ± 1.9 mmHg
